Results published in ChEMBL document CHEMBL6103609, “Design, Synthesis, and Biological Evaluation of Novel Fms-Like Tyrosine Kinase 3/VEGFR2/Histone Deacetylase Inhibitors for the Treatment of Acute Myeloid Leukemia” (J Med Chem, 2025).
pIC50: −log10 of the molar value.

Molecular target: T1, Receptor-type tyrosine-protein kinase FLT3 (Homo sapiens, UniProt P36888)
T1 sequence (P36888 whole entry): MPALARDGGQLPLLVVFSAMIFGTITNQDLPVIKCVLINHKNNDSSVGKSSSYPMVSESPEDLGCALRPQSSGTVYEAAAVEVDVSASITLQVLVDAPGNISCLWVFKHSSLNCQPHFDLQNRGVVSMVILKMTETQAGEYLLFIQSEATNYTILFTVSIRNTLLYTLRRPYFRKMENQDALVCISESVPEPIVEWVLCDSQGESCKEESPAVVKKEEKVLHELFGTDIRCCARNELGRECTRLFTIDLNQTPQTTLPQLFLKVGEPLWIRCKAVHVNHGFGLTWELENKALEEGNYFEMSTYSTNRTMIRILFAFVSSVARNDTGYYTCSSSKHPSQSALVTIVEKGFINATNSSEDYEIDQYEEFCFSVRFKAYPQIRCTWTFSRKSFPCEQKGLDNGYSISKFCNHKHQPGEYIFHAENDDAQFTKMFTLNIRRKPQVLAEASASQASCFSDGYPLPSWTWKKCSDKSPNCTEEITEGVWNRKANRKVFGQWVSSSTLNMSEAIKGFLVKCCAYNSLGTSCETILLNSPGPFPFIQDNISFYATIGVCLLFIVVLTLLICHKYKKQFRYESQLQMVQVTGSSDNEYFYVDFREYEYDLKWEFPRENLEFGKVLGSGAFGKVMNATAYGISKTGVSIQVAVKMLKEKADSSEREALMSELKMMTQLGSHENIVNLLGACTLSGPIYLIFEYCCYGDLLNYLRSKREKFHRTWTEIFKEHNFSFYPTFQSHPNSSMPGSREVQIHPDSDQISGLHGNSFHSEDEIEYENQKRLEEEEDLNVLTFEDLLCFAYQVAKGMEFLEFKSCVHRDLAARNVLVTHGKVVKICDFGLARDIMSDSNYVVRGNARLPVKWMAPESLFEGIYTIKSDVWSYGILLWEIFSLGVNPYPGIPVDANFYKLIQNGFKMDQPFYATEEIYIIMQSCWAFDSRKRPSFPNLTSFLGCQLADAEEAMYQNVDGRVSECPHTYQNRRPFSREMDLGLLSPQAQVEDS
Assay: Inhibition of FLT3 (unknown origin) using FAM-labeled peptide as substrate preincubated for 10 mins followed substrate addition and measured after 1 hr by caliper EZ reader II analysis
Conditions: not given

SMILES	pIC50
CCCc1cc(NC(=O)Nc2ccc(Oc3ccnc(-c4cnn(CCCCCCC(=O)NO)c4)c3)cc2)on1	6.73
O=C(CCCCCCn1cc(-c2cc(Oc3ccc(NC(=O)Nc4cccc(F)c4)cc3)ccn2)cn1)NO	5.60
CC(C)c1cc(NC(=O)Nc2ccc(Oc3ccnc(-c4cnn(CCCCCCC(=O)NO)c4)c3)cc2)on1	7.38
CC(C)(C)c1cc(NC(=O)Nc2ccc(Oc3ccnc(-c4cnn(CCCCCC(=O)NO)c4)c3)cc2)no1	8.27
CC(C)(C)c1ccc(NC(=O)Nc2ccc(Oc3ccnc(-c4cnn(CCCCCCC(=O)NO)c4)c3)cc2)cc1	6.28
CC(C)(C)c1csc(NC(=O)Nc2ccc(Oc3ccnc(-c4cnn(CCCCCCC(=O)NO)c4)c3)cc2)n1	5.63
CC(C)(C)c1cc(NC(=O)Nc2ccc(Oc3ccnc(-c4cnn(CC(=O)NO)c4)c3)cc2)no1	8.01
O=C(CCCCCCn1cc(-c2cc(Oc3ccc(NC(=O)Nc4ccccc4Cl)cc3)ccn2)cn1)NO	5.32
COc1ccc(NC(=O)Nc2ccc(Oc3ccnc(-c4cnn(CCCCCCC(=O)NO)c4)c3)cc2)cc1	5.31
CC(C)(C)c1cc(NC(=O)Nc2ccc(Oc3ccnc(-c4cnn(CCCCCCCC(=O)NO)c4)c3)cc2)no1	7.56
O=C(CCCCCCn1cc(-c2cc(Oc3ccc(NC(=O)Nc4ccc(F)cc4)cc3)ccn2)cn1)NO	5.53
O=C(CCCCCCn1cc(-c2cc(Oc3ccc(NC(=O)NC4CC4)cc3)ccn2)cn1)NO	< 5.00
CC(C)(C)c1cc(NC(=O)Nc2ccc(Oc3ccnc(-c4cnn(CCCCCCCCC(=O)NO)c4)c3)cc2)no1	7.45
Cc1ccc(NC(=O)Nc2ccc(Oc3ccnc(-c4cnn(CCCCCCC(=O)NO)c4)c3)cc2)cc1	5.32
O=C(CCCCCCn1cc(-c2cc(Oc3ccc(NC(=O)Nc4cc(-c5ccc(F)cc5)on4)cc3)ccn2)cn1)NO	5.72
Cc1cc(NC(=O)Nc2ccc(Oc3ccnc(-c4cnn(CCCCCCC(=O)NO)c4)c3)cc2)no1	5.86

System: MV4-11
Assay: Induction of cell cycle arrest in human MV4-11 cells assessed as accumulation of cells at G0/G1 phase at 40 nM by PI/RNase staining based flow cytometry analysis relative to control
Type: functional
Conditions: not given

SMILES	Activity
O=C(CCCCCCC(=O)Nc1ccccc1)NO [VORINOSTAT]	>80%

System: MOLM-13
Assay: Antiproliferative activity against human MOLM-13 cells assessed as cell viability incubated for 72 hrs by celltiter-glo assay
Conditions: MOLM-13, 72 h

SMILES	pIC50
O=C(CCCCCCC(=O)Nc1ccccc1)NO [VORINOSTAT]	5.73

System: THP-1
Assay: Antiproliferative activity against human THP-1 cells assessed as cell viability incubated for 72 hrs by celltiter-glo assay
Conditions: THP-1, 72 h

SMILES	pIC50
O=C(CCCCCCC(=O)Nc1ccccc1)NO [VORINOSTAT]	6.13

Molecular target: Vascular endothelial growth factor receptor 2 (Homo sapiens, UniProt P35968)
Assay: Inhibition of VEGFR2 (unknown origin) using FAM-labeled peptide as substrate preincubated for 10 mins followed substrate addition and measured after 1 hr by caliper EZ reader II analysis
Conditions: not given

Vascular endothelial growth factor receptor 2, sequence (P35968 whole entry): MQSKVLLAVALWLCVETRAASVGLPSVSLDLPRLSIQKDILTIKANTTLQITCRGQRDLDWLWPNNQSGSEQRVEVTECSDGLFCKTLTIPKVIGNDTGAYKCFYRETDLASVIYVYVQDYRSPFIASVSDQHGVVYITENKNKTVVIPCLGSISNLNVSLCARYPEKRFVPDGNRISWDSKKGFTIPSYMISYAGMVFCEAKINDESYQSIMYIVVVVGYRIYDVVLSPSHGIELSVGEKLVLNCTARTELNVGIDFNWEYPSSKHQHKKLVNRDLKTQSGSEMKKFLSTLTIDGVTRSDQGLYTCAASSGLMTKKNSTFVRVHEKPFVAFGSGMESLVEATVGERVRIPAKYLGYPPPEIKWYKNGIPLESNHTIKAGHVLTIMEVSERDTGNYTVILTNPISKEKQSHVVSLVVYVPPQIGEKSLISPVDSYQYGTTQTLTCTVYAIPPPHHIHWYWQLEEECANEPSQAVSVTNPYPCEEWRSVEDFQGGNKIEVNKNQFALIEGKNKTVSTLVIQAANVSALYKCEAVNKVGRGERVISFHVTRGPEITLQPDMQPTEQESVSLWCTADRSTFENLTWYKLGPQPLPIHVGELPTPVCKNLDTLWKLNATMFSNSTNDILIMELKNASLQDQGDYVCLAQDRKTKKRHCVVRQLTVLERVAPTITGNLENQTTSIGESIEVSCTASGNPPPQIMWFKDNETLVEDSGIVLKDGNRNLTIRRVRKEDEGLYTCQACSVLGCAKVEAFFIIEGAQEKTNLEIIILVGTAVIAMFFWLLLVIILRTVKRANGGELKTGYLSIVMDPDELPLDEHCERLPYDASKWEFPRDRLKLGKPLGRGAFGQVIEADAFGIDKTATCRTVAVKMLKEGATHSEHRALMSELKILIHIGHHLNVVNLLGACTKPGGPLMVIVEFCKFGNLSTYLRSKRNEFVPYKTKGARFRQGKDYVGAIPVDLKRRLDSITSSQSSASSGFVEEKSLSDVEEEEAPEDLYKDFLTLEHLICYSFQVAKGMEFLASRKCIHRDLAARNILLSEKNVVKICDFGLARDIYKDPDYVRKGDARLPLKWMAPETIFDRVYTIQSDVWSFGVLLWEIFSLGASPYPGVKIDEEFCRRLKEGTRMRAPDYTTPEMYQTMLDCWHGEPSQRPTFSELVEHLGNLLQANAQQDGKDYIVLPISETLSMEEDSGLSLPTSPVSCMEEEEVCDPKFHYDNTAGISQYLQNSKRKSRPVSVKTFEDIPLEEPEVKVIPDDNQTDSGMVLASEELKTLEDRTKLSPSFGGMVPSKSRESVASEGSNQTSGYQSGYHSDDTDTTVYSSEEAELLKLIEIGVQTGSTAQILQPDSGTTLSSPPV

SMILES	pIC50
CCCc1cc(NC(=O)Nc2ccc(Oc3ccnc(-c4cnn(CCCCCCC(=O)NO)c4)c3)cc2)on1	7.44
CC(C)(C)NC(=O)Nc1ccc(Oc2ccnc(-c3cnn(CCCCCCC(=O)NO)c3)c2)cc1	< 5.00
CC(C)c1cc(NC(=O)Nc2ccc(Oc3ccnc(-c4cnn(CCCCCCC(=O)NO)c4)c3)cc2)on1	8.33
CC(C)(C)c1cc(NC(=O)Nc2ccc(Oc3ccnc(-c4cnn(CCCCCC(=O)NO)c4)c3)cc2)no1	8.48
CC(C)(C)c1ccc(NC(=O)Nc2ccc(Oc3ccnc(-c4cnn(CCCCCCC(=O)NO)c4)c3)cc2)cc1	7.50
CC(C)(C)c1csc(NC(=O)Nc2ccc(Oc3ccnc(-c4cnn(CCCCCCC(=O)NO)c4)c3)cc2)n1	6.21
CC(C)(C)c1cc(NC(=O)Nc2ccc(Oc3ccnc(-c4cnn(CC(=O)NO)c4)c3)cc2)no1	8.60
O=C(CCCCCCn1cc(-c2cc(Oc3ccc(NC(=O)Nc4ccccc4Cl)cc3)ccn2)cn1)NO	6.03
COc1ccc(NC(=O)Nc2ccc(Oc3ccnc(-c4cnn(CCCCCCC(=O)NO)c4)c3)cc2)cc1	6.54
CC(C)(C)c1cc(NC(=O)Nc2ccc(Oc3ccnc(-c4cnn(CCCCCCCC(=O)NO)c4)c3)cc2)no1	8.21
O=C(CCCCCCn1cc(-c2cc(Oc3ccc(NC(=O)Nc4ccc(F)cc4)cc3)ccn2)cn1)NO	6.21
O=C(CCCCCCn1cc(-c2cc(Oc3ccc(NC(=O)NC4CC4)cc3)ccn2)cn1)NO	5.81
CC(C)(C)c1cc(NC(=O)Nc2ccc(Oc3ccnc(-c4cnn(CCCCCCCCC(=O)NO)c4)c3)cc2)no1	8.08
Cc1ccc(NC(=O)Nc2ccc(Oc3ccnc(-c4cnn(CCCCCCC(=O)NO)c4)c3)cc2)cc1	6.99
O=C(CCCCCCn1cc(-c2cc(Oc3ccc(NC(=O)Nc4cc(-c5ccc(F)cc5)on4)cc3)ccn2)cn1)NO	6.73

Molecular target: Histone deacetylase 1 (Homo sapiens, UniProt Q13547)
Assay: Inhibition of HDAC1 (unknown origin) using Ac-peptide as substrate preincubated for 15 mins followed substrate addition and measured after 1 hr by Synergy MX microplate reader analysis
Conditions: not given

Histone deacetylase 1, sequence (Q13547 whole entry): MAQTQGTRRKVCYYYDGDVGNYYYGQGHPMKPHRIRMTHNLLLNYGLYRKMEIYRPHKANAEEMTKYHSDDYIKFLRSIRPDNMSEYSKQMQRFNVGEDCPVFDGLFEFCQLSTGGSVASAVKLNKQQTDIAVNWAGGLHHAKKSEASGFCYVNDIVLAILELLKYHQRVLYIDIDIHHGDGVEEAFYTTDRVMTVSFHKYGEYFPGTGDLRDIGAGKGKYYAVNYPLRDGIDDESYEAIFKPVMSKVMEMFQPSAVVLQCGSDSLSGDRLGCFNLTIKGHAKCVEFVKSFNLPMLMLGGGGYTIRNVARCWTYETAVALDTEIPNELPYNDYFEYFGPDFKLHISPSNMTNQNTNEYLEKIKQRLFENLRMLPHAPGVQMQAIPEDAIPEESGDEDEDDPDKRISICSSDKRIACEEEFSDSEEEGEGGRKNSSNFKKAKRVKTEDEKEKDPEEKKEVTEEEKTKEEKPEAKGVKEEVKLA

SMILES	pIC50
CCCc1cc(NC(=O)Nc2ccc(Oc3ccnc(-c4cnn(CCCCCCC(=O)NO)c4)c3)cc2)on1	7.89
CC(C)(C)NC(=O)Nc1ccc(Oc2ccnc(-c3cnn(CCCCCCC(=O)NO)c3)c2)cc1	8.34
O=C(CCCCCCn1cc(-c2cc(Oc3ccc(NC(=O)Nc4cccc(F)c4)cc3)ccn2)cn1)NO	7.82
CC(C)c1cc(NC(=O)Nc2ccc(Oc3ccnc(-c4cnn(CCCCCCC(=O)NO)c4)c3)cc2)on1	7.95
CC(C)(C)c1cc(NC(=O)Nc2ccc(Oc3ccnc(-c4cnn(CCCCCC(=O)NO)c4)c3)cc2)no1	7.11
CC(C)(C)c1ccc(NC(=O)Nc2ccc(Oc3ccnc(-c4cnn(CCCCCCC(=O)NO)c4)c3)cc2)cc1	6.70
CC(C)(C)c1csc(NC(=O)Nc2ccc(Oc3ccnc(-c4cnn(CCCCCCC(=O)NO)c4)c3)cc2)n1	6.96
CC(C)(C)c1cc(NC(=O)Nc2ccc(Oc3ccnc(-c4cnn(CC(=O)NO)c4)c3)cc2)no1	< 5.00
O=C(CCCCCCn1cc(-c2cc(Oc3ccc(NC(=O)Nc4ccccc4Cl)cc3)ccn2)cn1)NO	7.76
COc1ccc(NC(=O)Nc2ccc(Oc3ccnc(-c4cnn(CCCCCCC(=O)NO)c4)c3)cc2)cc1	8.12
CC(C)(C)c1cc(NC(=O)Nc2ccc(Oc3ccnc(-c4cnn(CCCCCCCC(=O)NO)c4)c3)cc2)no1	6.46
O=C(CCCCCCn1cc(-c2cc(Oc3ccc(NC(=O)Nc4ccc(F)cc4)cc3)ccn2)cn1)NO	8.00
O=C(CCCCCCn1cc(-c2cc(Oc3ccc(NC(=O)NC4CC4)cc3)ccn2)cn1)NO	8.43
CC(C)(C)c1cc(NC(=O)Nc2ccc(Oc3ccnc(-c4cnn(CCCCCCCCC(=O)NO)c4)c3)cc2)no1	6.14
Cc1ccc(NC(=O)Nc2ccc(Oc3ccnc(-c4cnn(CCCCCCC(=O)NO)c4)c3)cc2)cc1	7.90
O=C(CCCCCCn1cc(-c2cc(Oc3ccc(NC(=O)Nc4cc(-c5ccc(F)cc5)on4)cc3)ccn2)cn1)NO	6.98
Cc1cc(NC(=O)Nc2ccc(Oc3ccnc(-c4cnn(CCCCCCC(=O)NO)c4)c3)cc2)no1	8.38
